Measurements: US9499495B2, “Quinazolines and azaquinazolines as dual inhibitors of RAS/RAF/MEK/ERK and PI3K/AKT/PTEN/mTOR pathways” (Asana Biosciences, LLC, priority 2013, dated 2016)

Columns and labels:
B-RAFV600E = target: T1, B-RAFV600E (Homo sapiens, UniProt P15056, V600E); test: B-RAFV600E radiometric assay; assay type: biochemical; conditions: read-out: Kinase assay B-Raf
T1 construct: purchased Millipore, USA 14-557
How it was run: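 B-RAFV600E was preincubated 45 min at rt with compound in 1% DMSO. MEK-K97M (0.5 μg), 5 μM final cold ATP and [γ-32P]ATP were then added for 2 h at rt. Phosphorylated MEK was captured on P81 paper and scintillation-counted; IC50 came from a sigmoidal dose-response fit.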

mTOR kinase = target: T2, mTOR kinase (Homo sapiens, UniProt P42345); test: mTOR kinase TR-FRET assay; assay type: biochemical
T2 construct: purchased Millipore, US
How it was run: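 TR-FRET with ULight-p70 S6K (Thr 389) peptide (50 nM) and 20 μM ATP in 50 mM HEPES pH 7.5, 1 mM EGTA, 3 mM MnCl2; compound pre-incubated with enzyme before substrate addition, reaction at rt, EDTA-stopped. Eu anti-phospho antibody read 665/615 nm; IC50 from sigmoidal dose-response fit.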

pERK in A375 cells = test: In Cell Western (ICW) assay, pERK in A375 cells; assay type: cell-based; conditions: Homo sapiens, A-375, 3 h treatment
How it was run: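 After a 3 h compound treatment at 37 °C, fixed RKO or A375 cells were probed for phospho-ERK1/2 (T202/Y204), phospho-S6RP or phospho-AKT T308 and detected with a Eu-tagged anti-rabbit antibody (ex 340/em 615 nm), with Hoechst signal as the cell-number correction. Inhibition was referenced to DMSO, and IC50 values came from sigmoidal dose-response curves.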

A375 cells = test: XTT assay for cell viability, A375 cells; assay type: cell-based; conditions: Homo sapiens, A-375, 72 h
How it was run: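 GI50 derived by sigmoidal dose-response fitting of proliferation normalised to DMSO control (100%). Readout: A450 after 2-3 h with XTT (1 mg/ml)/PMS (25 μM), following 72 h compound treatment at 37° C., 5% CO2 of cells plated at 1000-2000 per well the previous day.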

pERK in RKO cells = test: In Cell Western (ICW) assay, pERK in RKO cells; assay type: cell-based; conditions: Homo sapiens, 3 h treatment
Method: (§1) Cell lines A375, A2058 and RKO obtained from the ATCC as provided above, were grown, and after attaining ˜80% confluency were trypsinized, centrifuged and resuspended in fresh media. The cells were seeded at the specified density (20,000 to 50,000) in a 96-well format black-well clear bottom plate (Corning) and incubated overnight at 37° C. in a 5% CO2 incubator. The next day, compound dilutions of test compounds were prepared in 100% DMSO followed by dilutions in respective media. Treatment of test compounds was performed for 3 h at 37° C. in 5% CO2 incubator. Following 3 h drug treatment, the conditional media was discarded and the cells were washed once with cPBS (PBS containing 0.1% magnesium chloride hexahydrate and 0.1% anhydrous calcium chloride) and fixed with 4% paraformaldehyde in cPBS for 1 h at rt. After fixing, the cells were given three washes using cPBST (cPBS containing 0.1% Triton™ X-100 reagent) and then blocked using blocking solution (5% skimmed milk powder or 5% BSA prepared in cPBST) for 2 h at rt with shaking at 300 rpm. The cells were again washed thrice with cPBST and incubated with primary antibody phospho-p44/42 MAPK(Erk1/2)(Thr202/204) antibody (Cell Signaling, Catalog # 9101L), phospho S6 ribosomal protein (Cell Signaling, Catalog #4858L), phospho AKT (Thr 308) (Cell Signaling, Catalog #9275) or phospho AKT (Ser 473) (Cell Signaling, Catalog #4060L) in specified dilutions (1:500-1:2500), prepared in respective blocking solutions, in a racker overnight at 4° C. The next day, the cells were washed with 1× Delfia® wash buffer (4×1 wash) and incubated with secondary antibody (Delfia®-Eu-N1 labeled anti-rabbit antibody; PerkinElmer, Catalog #AD0105; dilutions: 1:2000 to 1:6000 in Delfia® assay buffer (PerkinElmer, Catalog #1244-111)) for 2 h at rt in the dark at 300 rpm. The cells were then given four washes with 1× Delfia® wash buffer and incubated with Wallac Delfia® Enhancement solution (100 μL; PerkinElmer, Catalog #1244-105) for 20 min at rt in the dark at 300 rpm. The fluorescence emission was then read at 615 nm with an excitation wavelength of 340 nm using a Victor V5 Fluorometer (Perkin Elmer, US). The cells were then washed once with 1×cPBS and incubated with 100 μL of 0.5 mg/mL of Hoechst 33258 dye prepared in cPBS and read at 460 nm with 355 nm excitation, thereby evaluating the correction factor.
(§2) The % inhibition for the test compounds of formula (I) (new chemical entities (NCEs)) was calculated keeping DMSO control as 0% and the IC50 values were determined using sigmoidal dose response curve fit in GraphPad Prism® v5 software.

pS6RP in RKO cells = test: In Cell Western (ICW) assay, pS6RP in RKO cells; assay type: cell-based; conditions: Homo sapiens, 3 h treatment
Method: as §1, §2

RKO cells = test: XTT assay for cell viability, RKO cells; assay type: cell-based; conditions: Homo sapiens, 72 h
Method: Cell lines (A375 ATCC No. CRL-1619, A2058 ATCC No. CRL-11147 and RKO ATCC No. CRL-2577, American Type Culture Collection (ATCC), Manassas Va.) once attaining ˜80% confluency were trypsinized, centrifuged and resuspended in fresh media. Cells (1000-2000/per well) were seeded in 96-well plate and incubated over-night at 37° C. in a 5% CO2 incubator. Compound dilutions were prepared in 100% DMSO followed by dilutions in the respective media. The cells were treated with NCEs for 72 h at 37° C. in 5% CO2 incubator. After 72 h, freshly prepared XTT (1 mg/ml)/PMS (25 μM) solution was added, incubated for 2 to 3 h at 37° C. and the absorbance was measured at 450 nm using an ELISA plate reader. Keeping DMSO control as 100%, the effect of the compound to inhibit the cell proliferation was calculated and the GI50 values were determined using sigmoidal dose response curve fit in GraphPad Prism® v5 software.

PI3Kα = target: T3, PI3Kα (Homo sapiens, UniProt P42336); test: PI3 Kinase alpha TR-FRET assay; assay type: biochemical
T3 construct: made in house; host or cells: SF9 cells
How it was run: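 Purified Sf9-expressed p110/p85α (5 ng) was pre-incubated with compound and PIP2 at rt, then ATP was added (PIP2 and ATP both 40 μM) for a 30 min reaction. PIP3 was detected by TR-FRET displacement of biotin-PIP3, and IC50 was taken from dose-response curves of the 665/615 nm emission ratio.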

pAKT (T308) in RKO cells = test: In Cell Western (ICW) assay, pAKT-T308 in RKO cells; assay type: cell-based; conditions: Homo sapiens, 3 h treatment
Method: as §1, §2

T1 sequence (P15056 416-766 V600E limits assumed): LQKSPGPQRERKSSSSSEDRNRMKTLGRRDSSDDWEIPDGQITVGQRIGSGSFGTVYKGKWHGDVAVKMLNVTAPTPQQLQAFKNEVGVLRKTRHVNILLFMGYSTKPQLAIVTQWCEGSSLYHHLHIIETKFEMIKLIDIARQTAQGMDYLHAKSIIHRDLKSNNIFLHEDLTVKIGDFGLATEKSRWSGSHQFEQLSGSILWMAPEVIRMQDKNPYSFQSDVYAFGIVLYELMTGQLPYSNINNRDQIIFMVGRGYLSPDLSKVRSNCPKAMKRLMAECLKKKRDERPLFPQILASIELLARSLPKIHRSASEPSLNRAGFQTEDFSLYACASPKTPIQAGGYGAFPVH
T2 sequence (P42345 1362-2549 limits assumed): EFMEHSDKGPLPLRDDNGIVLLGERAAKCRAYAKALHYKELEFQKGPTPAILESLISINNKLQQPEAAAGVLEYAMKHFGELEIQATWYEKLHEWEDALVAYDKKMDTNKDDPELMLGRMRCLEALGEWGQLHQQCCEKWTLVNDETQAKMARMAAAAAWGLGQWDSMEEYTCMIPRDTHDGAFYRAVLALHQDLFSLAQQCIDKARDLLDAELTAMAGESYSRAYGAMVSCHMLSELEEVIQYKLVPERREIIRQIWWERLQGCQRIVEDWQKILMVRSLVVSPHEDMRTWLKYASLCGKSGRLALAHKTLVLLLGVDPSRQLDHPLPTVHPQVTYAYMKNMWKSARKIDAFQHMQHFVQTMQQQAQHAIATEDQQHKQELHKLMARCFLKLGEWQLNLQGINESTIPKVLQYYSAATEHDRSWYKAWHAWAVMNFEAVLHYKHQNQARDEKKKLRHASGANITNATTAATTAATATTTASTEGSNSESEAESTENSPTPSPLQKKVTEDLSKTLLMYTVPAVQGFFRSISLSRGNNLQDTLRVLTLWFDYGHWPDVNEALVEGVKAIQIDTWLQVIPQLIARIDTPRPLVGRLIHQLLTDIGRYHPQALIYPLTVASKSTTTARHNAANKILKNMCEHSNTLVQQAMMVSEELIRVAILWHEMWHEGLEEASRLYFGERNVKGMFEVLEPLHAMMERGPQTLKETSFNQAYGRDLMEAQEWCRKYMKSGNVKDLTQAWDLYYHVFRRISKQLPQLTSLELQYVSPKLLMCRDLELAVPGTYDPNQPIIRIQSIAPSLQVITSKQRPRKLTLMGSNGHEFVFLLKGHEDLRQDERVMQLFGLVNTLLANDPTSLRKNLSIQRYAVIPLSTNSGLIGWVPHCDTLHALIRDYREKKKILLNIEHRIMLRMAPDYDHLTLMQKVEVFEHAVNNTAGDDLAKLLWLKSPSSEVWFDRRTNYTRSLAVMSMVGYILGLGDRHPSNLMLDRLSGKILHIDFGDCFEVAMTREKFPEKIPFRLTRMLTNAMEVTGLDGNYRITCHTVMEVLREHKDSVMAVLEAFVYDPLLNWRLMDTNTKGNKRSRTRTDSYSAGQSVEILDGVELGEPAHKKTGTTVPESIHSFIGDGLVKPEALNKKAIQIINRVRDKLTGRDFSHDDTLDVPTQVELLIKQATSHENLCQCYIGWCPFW
T3 sequence (P42336 whole entry, species assumed): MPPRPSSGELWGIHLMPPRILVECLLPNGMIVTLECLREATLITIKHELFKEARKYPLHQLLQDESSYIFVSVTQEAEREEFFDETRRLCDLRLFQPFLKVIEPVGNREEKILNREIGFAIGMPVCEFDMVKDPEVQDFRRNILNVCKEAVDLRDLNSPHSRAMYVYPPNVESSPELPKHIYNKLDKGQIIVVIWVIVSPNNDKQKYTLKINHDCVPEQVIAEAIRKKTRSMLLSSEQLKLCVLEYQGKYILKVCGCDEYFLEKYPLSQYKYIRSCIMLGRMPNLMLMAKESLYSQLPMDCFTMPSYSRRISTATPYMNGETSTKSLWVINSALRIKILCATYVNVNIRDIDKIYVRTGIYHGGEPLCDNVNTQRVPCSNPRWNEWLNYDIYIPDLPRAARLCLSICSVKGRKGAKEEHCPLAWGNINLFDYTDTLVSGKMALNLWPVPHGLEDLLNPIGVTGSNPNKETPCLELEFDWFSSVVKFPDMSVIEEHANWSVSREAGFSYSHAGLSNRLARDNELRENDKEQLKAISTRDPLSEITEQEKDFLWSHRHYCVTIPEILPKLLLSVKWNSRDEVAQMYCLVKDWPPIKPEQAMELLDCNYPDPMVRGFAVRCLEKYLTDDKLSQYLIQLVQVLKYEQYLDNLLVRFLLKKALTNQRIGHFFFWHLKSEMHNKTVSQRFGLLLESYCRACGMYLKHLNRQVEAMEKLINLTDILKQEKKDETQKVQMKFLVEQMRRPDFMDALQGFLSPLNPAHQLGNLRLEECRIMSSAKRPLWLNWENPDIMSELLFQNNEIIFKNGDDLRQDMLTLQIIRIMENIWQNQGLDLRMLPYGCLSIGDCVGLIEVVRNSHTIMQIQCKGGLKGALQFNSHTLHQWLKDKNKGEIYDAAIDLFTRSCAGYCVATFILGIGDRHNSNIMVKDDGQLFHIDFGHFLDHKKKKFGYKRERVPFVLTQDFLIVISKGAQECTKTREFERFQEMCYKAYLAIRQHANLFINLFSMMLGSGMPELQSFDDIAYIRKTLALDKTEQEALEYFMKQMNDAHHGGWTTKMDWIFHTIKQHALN
T3 sequence (P27986 whole entry partner, species assumed): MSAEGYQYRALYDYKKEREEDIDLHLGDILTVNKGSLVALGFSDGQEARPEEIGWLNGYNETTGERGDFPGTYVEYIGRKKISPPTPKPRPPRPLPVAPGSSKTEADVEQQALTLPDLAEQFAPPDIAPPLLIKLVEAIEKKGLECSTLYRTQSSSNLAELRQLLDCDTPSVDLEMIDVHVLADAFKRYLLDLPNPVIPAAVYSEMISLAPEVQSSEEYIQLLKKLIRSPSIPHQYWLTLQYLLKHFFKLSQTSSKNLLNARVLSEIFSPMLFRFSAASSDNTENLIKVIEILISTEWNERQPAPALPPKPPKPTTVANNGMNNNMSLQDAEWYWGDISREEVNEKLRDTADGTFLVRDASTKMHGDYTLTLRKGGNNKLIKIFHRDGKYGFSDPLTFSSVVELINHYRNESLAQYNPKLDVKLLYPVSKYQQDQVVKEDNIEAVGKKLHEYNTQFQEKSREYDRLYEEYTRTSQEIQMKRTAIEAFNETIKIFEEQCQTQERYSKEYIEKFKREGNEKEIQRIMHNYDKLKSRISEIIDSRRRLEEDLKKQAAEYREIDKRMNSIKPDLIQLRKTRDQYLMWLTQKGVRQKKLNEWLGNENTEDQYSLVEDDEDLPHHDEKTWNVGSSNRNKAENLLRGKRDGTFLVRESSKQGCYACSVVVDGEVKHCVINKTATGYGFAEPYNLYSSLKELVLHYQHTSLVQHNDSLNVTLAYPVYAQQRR

Compound | IC50 (B-RAFV600E) [nM] | IC50 (mTOR kinase) [nM] | IC50 (pERK in A375 cells) [nM] | IC50 (A375 cells) [nM] | IC50 (pERK in RKO cells) [nM] | IC50 (pS6RP in RKO cells) [nM] | IC50 (PI3Kα) [nM] | IC50 (pAKT (T308) in RKO cells) [nM] | IC50 (RKO cells) [nM]
C[C@@H]1COCCN1c1nc(-c2cnc(N)nc2)nc2c(N3CCOCC3)cc(-c3cccc(NS(=O)(=O)CCCF)c3F)cc12 [Example 73, (R)-N-(3-(2-(2-aminopyrimidin-5-yl)-4-(3-methylmorpholino)-8-morpholinoqulnazolin-6-yl)-2-fluorophenyl)-3-fluoropropane-1-sulfonamide] | 1 to 100 | 1 to 100 | 1 to 100 | 1 to 100 | 1 to 100 | 100 to 1000 |  |  | 100 to 1000
Nc1ncc(-c2nc(N3CCOCC3)c3nc(-c4cccc(NS(=O)(=O)CCCF)c4F)ccc3n2)c(C(F)(F)F)n1 [Example 100, N-(3-(2-(2-amino-4-(trifluoromethyl)pyrimidin-5-yl)-4-morpholinopyrido[3,2-d]pyrimidin-6-yl)-2-fluorophenyl)-3-fluoropropane-1-sulfonamide] | 1 to 100 |  | 100 to 1000 | 100 to 1000 | 1 to 100 |  | 1 to 100 | 100 to 1000 | 100 to 1000
Nc1ncc(-c2nc(N3CCOCC3)c3nc(-c4cccc(NS(=O)(=O)CCCF)c4F)ccc3n2)cc1Cl [Example 103, N-(3-(2-(6-amino-5-chloropyridin-3-yl)-4-morpholinopyrido[3,2-d]pyrimidin-6-yl)-2-fluorophenyl)-3-fluoropropane-1-sulfonamide] | 1 to 100 |  | 100 to 1000 |  |  |  | 100 to 1000 | 1000 to 10000 | 1000 to 10000
Nc1ncc(-c2nc(N3CCOCC3)c3nc(-c4cccc(NS(=O)(=O)CCCF)c4F)ccc3n2)cc1F [Example 105, N-(3-(2-(6-amino-5-fluoropyridin-3-yl)-4-morpholinopyrido[3,2-d]pyrimidin-6-yl)-2-fluorophenyl)-3-fluoropropane-1-sulfonamide] | 1 to 100 |  | 100 to 1000 | 100 to 1000 | 100 to 1000 |  | 1 to 100 | 1000 to 10000 | 1000 to 10000
Cc1nc(N)ncc1-c1nc(N2CCOCC2)c2nc(-c3cccc(NS(=O)(=O)CCCF)c3F)ccc2n1 [Example 109] | 1 to 100 |  | 1 to 100 | 100 to 1000 | 100 to 1000 |  | 1 to 100 | 1000 to 10000 | 
CNC(=O)Nc1ccc(-c2nc(N3CCOCC3)c3nc(-c4cccc(NS(=O)(=O)CCCF)c4F)ccc3n2)cc1 [Example 139, 3-fluoro-N-(2-fluoro-3-(2-(4-(3-methylureido)phenyl)-4-morpholinopyrido[3,2-d]pyrimidin-6-yl)phenyl)propane-1-sulfonamide] | 1 to 100 | 1 to 100 | 100 to 1000 | 100 to 1000 | 100 to 1000 |  |  | 100 to 1000 | 100 to 1000

Second part, led by results:

IC50 (B-RAFV600E) [nM] | IC50 (mTOR kinase) [nM] | IC50 (pERK in A375 cells) [nM] | IC50 (A375 cells) [nM] | IC50 (pERK in RKO cells) [nM] | IC50 (pS6RP in RKO cells) [nM] | IC50 (PI3Kα) [nM] | IC50 (pAKT (T308) in RKO cells) [nM] | Compound | IC50 (RKO cells) [nM]
1 to 100 | 1 to 100 | 1 to 100 | 1 to 100 | 1 to 100 | 1 to 100 |  |  | Nc1ccc(-c2nc(N3CCOCC3)c3cc(-c4cccc(NS(=O)(=O)CCCF)c4F)cc(N4CCOCC4)c3n2)cn1 [Example 5, N-(3-(2-(6-aminopyridin-3-yl)-4,8-dimorpholinoquinazolin-6-yl)-2-fluorophenyl)-3-fluoropropane-1-sulfonamide] | 100 to 1000
1 to 100 | 100 to 1000 | 1 to 100 | 100 to 1000 | 1 to 100 | 100 to 1000 |  |  | COc1cc(-c2cccc(NS(=O)(=O)CCCF)c2F)cc2c(N3CCOCC3)nc(-c3ccc(N)nc3)nc12 [Example 30, N-(3-(2-(6-aminopyridin-3-yl)-8-methoxy-4-morpholinoquinazolin-6-yl)-2-fluorophenyl)-3-fluoropropane-1-sulfonamide] | 100 to 1000
1 to 100 | 1 to 100 | 1 to 100 | 1 to 100 | 1 to 100 | 100 to 1000 |  |  | COc1cc(-c2cccc(NS(=O)(=O)CCCF)c2F)cc2c(N3CCOC[C@H]3C)nc(-c3ccc(N)nc3)nc12 [Example 42, (R)-N-(3-(2-(6-aminopyridin-3-yl)-8-methoxy-4-(3-methylmorpholino)quinazolin-6-yl)-2-fluorophenyl)-3-fluoropropane-1-sulfonamide] | 100 to 1000
1 to 100 | 100 to 1000 | 1 to 100 | 1 to 100 | 1 to 100 | 100 to 1000 |  |  | CCOc1cc(-c2cccc(NS(=O)(=O)CCCF)c2F)cc2c(N3CCOCC3)nc(-c3ccc(N)nc3)nc12 [Example 52, N-(3-(2-(6-aminopyridin-3-yl)-8-ethoxy-4-morpholinoquinazolin-6-yl)-2-fluorophenyl)-3-fluoropropane-1-sulfonamide] | 100 to 1000
1 to 100 | 100 to 1000 | 1 to 100 | 1 to 100 | 1 to 100 | 100 to 1000 |  |  | CC(C)Oc1cc(-c2cccc(NS(=O)(=O)CCCF)c2F)cc2c(N3CCOCC3)nc(-c3ccc(N)nc3)nc12 [Example 55, N-(3-(2-(6-aminopyridin-3-yl)-8-isopropoxy-4-morpholinoquinazolin-6-yl)-2-fluorophenyl)-3-fluoropropane-1-sulfonamide] | 100 to 1000
1 to 100 | 1 to 100 | 1 to 100 | 1 to 100 | 1 to 100 | 100 to 1000 |  |  | CC(C)Oc1cc(-c2cccc(NS(=O)(=O)CCCF)c2F)cc2c(N3CCOC[C@H]3C)nc(-c3ccc(N)nc3)nc12 [Example 63, (R)-N-(3-(2-(6-aminopyridin-3-yl)-8-isopropoxy-4-(3-methylmorpholino)quinazolin-6-yl)-2-fluorophenyl)-3-fluoropropane-1-sulfonamide] | 100 to 1000
